# Where two headings read alike, the source gives them in different places.
# Key:
# [1] = tested on: subjects with compensated cirrhosis due to NASH; assay: Proof-of-concept study of Compound 1 in compensated cirrhosis due to NASH; format: in vivo, human
# Experimental: Methods: In a proof-of-concept study, 10 subjects with suspected compensated cirrhosis (Child-Turcotte-Pugh [CTP]-A) due to NASH (defined by any one of biopsy, liver stiffness by magnetic resonance elastography [MRE]≥4.67 kPa or transient elastography ≥14.0 kPa, or Fibrotest ≥0.75) received Compound 1 20 mg orally once daily for 12 weeks. Centrally-read magnetic resonance imaging-proton density fat fraction (MRI-PDFF) and MRE, and serum markers of fibrosis were measured at baseline (BL), Week 4 (W4), and Week 12 ([…]). For DNL determination, heavy water (^2H2O, 35 mL) was administered three times daily for one-week cycles prior to baseline, W4, and […]. Deuterium incorporation into palmitate was measured in fasting plasma samples by GC/MS, and mass isotopomer distribution analysis was used to calculate hepatic DNL and its inhibition by Compound 1.
# [2] = tested on: subjects with steatosis and F1-F3 fibrosis / NASH; settings: Compound 1 20 mg; for ≥30% reduction in MRI-PDFF, % of subjects: 12 weeks
# Experimental: Ten subjects with steatosis (MRI-PDFF≥10%) and F1-F3 fibrosis (MRE≥2.88 kPa but non-cirrhotic based on FibroText <0.75, historical imaging and liver biopsy) were treated 20 mg Compound 1 for 12 weeks.
# Four of the ten subjects were on fish oil or fenofibrate at baseline and continued the concomitant medication for the duration of the study. Throughout the study subjects were monitored for safety (adverse events, laboratory abnormalities), liver biochemistry, serum markers of fibrosis (ELF and its components TIMP-1, hyaluronic acid, PIII-NP) and cell death (CK18 M30 and M65), liver stiffness (MRE) and fat (MRI-PDFF) and the effect on de novo lipogensis was assessed using heavy water labeling.
# The four subjects were analyzed in conjunction with eight subjects from the study described in Example 1. These twelve subjects were on fish oil or fibrates for at least six weeks of the study and included those who were on fish oil or fibrates at baseline or who had graded hypertriglyceridemia and were given fish oil or fibrates during the study.
# [3] = split by fibrate/fish oil for > 6 weeks: without n = 47, with n = 12
smiles,measurement,setting,value
"COc1ccccc1[C@H](Cn1c(=O)n(C(C)(C)C(=O)O)c(=O)c2c(C)c(-c3ncco3)sc21)OC1CCOCC1 [Compound 1, (R)-2-(1-(2-(2-methoxyphenyl)-2-((tetrahydro-2H-pyran-4-yl)oxy)ethyl)-5-methyl-6-(oxazol-2-yl)-2,4-dioxo-1,2-dihydrothieno[2,3-d]pyrimidin-3(4H)-yl)-2-methylpropanoic acid]",Asymptomatic Grade 3 hypertriglyceridemia,"[1]; Compound 1 20 mg once daily, 10 subjects, responded to fibrate therapy",One subject
same,Changes in MRE-stiffness or serum fibrosis markers,"[1]; Compound 1 20 mg once daily, 12 weeks",No significant changes
same,Tolerability,"[1]; Compound 1 20 mg once daily, 12 weeks, no premature discontinuation",well-tolerated
same,Other lipid parameters,"[1]; Compound 1 20 mg once daily, BL to W12",unchanged
same,"≥30% relative decline in PDFF, % of subjects","[1]; Compound 1 20 mg once daily, W4, 5 of 10 subjects",50%
same,"≥30% relative decline in PDFF, % of subjects","[1]; Compound 1 20 mg once daily, W12, 7 of 10 subjects",70%
same,"Fasting triglycerides, median","[1]; Compound 1 20 mg once daily, W12, IQR (142, 248), BL 147 (105, 231), P=0.008",159 mg/dL
same,"Hepatic PDFF (MRI-PDFF), median","[1]; Compound 1 20 mg orally once daily, W12, BL 9.2, P=0.004",4.6%
same,"Serum ALT, median","[1]; Compound 1 20 mg orally once daily, W12, BL 46, P=0.008",32 U/L
same,"≥30% reduction in MRI-PDFF, % of subjects",[2]; all subjects (n = 59),49%
same,"≥30% reduction in MRI-PDFF, % of subjects",[2]; [3],43%
same,"ALT, median relative change over 12 weeks",[2]; all subjects (n = 59),−21.9%
same,"ELF, median relative change over 12 weeks",[2]; all subjects (n = 59),−0.8%
same,"Fasting Glucose, median relative change over 12 weeks",[2]; all subjects (n = 59),−2.0%
same,"Hemoglobin A1c, median relative change over 12 weeks",[2]; all subjects (n = 59),−1.4%
same,"Hyaluronic acid, median relative change over 12 weeks",[2]; all subjects (n = 59),−5.9%
same,"MRE, median relative change over 12 weeks",[2]; all subjects (n = 59),−6.6%
same,"MRI-PDFF, median relative change over 12 weeks",[2]; all subjects (n = 59),−31.0%
same,"PIII-NP, median relative change over 12 weeks",[2]; all subjects (n = 59),−13.9%
same,"TIMP-1, median relative change over 12 weeks",[2]; all subjects (n = 59),−8.8%
same,"FibroScan, median relative change over 12 weeks","[2]; all subjects, only Phase 2 study of Example 1",−11.1%
same,"ALT, median relative change over 12 weeks",[2]; [3],−19.4%
same,"ELF, median relative change over 12 weeks",[2]; [3],−0.35%
same,"Fasting Glucose, median relative change over 12 weeks",[2]; [3],−1.9%
same,"Hemoglobin A1c, median relative change over 12 weeks",[2]; [3],−1.4%
same,"Hyaluronic acid, median relative change over 12 weeks",[2]; [3],−4.5%
same,"MRE, median relative change over 12 weeks",[2]; [3],−3.2%
same,"MRI-PDFF, median relative change over 12 weeks",[2]; [3],−27.9%
same,"PIII-NP, median relative change over 12 weeks",[2]; [3],−13.9%
same,"TIMP-1, median relative change over 12 weeks",[2]; [3],−7.85%
same,"FibroScan, median relative change over 12 weeks","[2]; split by fibrate/fish oil for > 6 weeks, only Phase 2 study of Example 1, n = 6 with fibrate/fish oil",−9.8%

# — patent US11963961B2, “Combination therapy comprising an ACC inhibitor” (Gilead Sciences, Inc., priority 2017, dated 2024)
